What all share (test): Bliss interaction score (quartile over a dose matrix) (fitness difference); higher = more antagonism (negative = synergy)
For one assay, the system named is B. subtilis 168. In a few lines:
(§1)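 Quartiles of the Bliss score were taken over technical, biological and donor/recipient replicates. That score is observed fitness minus the product of the single-drug fitness values, which were inferred from combination data. Fitness itself is OD595 at entry into stationary phase divided by the plate's robust no-drug mean, with a cap at 1.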

The test system of a further assay is S. pneumoniae D39V. In a few lines:
as §1

A further assay deals with S. aureus DSM 20231. The method, boiled down:
as §1

The next assay concerns S. aureus Newman. The method, boiled down:
as §1
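Note: first quartile when negative (synergy) and third quartile when positive (antagonism).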

As for `CC[C@H]1OC(=O)[C@H](C)[C@@H](O[C@H]2C[C@@](C)(OC)[C@@H](O)[C@H](C)O2)[C@H](C)[C@@H](O[C@@H]2O[C@H](C)C[C@H](N(C)C)[C@H]2O)[C@](C)(OC)C[C@@H](C)C(=O)[C@H](C)[C@@H](O)[C@]1(C)O` [Clarithromycin] + CN[C@H](CC(C)C)C(=O)N[C@H]1C(=O)N[C@@H](CC(N)=O)C(=O)N[C@H]2C(=O)N[C@H]3C(=O)N[C@H](C(=O)N[C@H](C(=O)O)c4cc(O)cc(O)c4-c4cc3ccc4O)[C@H](O[C@H]3C[C@](C)(N)[C@@H](O)[C@H](C)O3)c3ccc(c(Cl)c3)Oc3cc2cc(c3O[C@@H]2O[C@H](CO)[C@@H](O)[C@H](O)[C@H]2O[C@H]2C[C@](C)(NCc3ccc(-c4ccc(Cl)cc4)cc3)[C@@H](O)[C@H](C)O2)Oc2ccc(cc2Cl)[C@H]1O [Oritavancin], the Bliss interaction score with B. subtilis 168 is 0.0293; with S. pneumoniae D39V it was 0.0635; in the assay on S. aureus DSM 20231 it was -0.0389; with S. aureus Newman, -0.0471.
For `CC[C@H]1OC(=O)[C@H](C)[C@@H](O[C@H]2C[C@@](C)(OC)[C@@H](O)[C@H](C)O2)[C@H](C)[C@@H](O[C@@H]2O[C@H](C)C[C@H](N(C)C)[C@H]2O)[C@](C)(OC)C[C@@H](C)C(=O)[C@H](C)[C@@H](O)[C@]1(C)O` [Clarithromycin] + CO[C@@H]1[C@@H](OC(N)=O)[C@@H](O)[C@H](Oc2ccc3c(O)c(NC(=O)c4ccc(O)c(CC=C(C)C)c4)c(=O)oc3c2C)OC1(C)C [Novobiocin], the Bliss interaction score with B. subtilis 168 was 0.125; in the assay on S. pneumoniae D39V it was -0.0569; in the assay with S. aureus DSM 20231, -0.0522; in the assay on S. aureus Newman, 0.0643.
The matching figures for `CC[C@H]1OC(=O)[C@H](C)[C@@H](O[C@H]2C[C@@](C)(OC)[C@@H](O)[C@H](C)O2)[C@H](C)[C@@H](O[C@@H]2O[C@H](C)C[C@H](N(C)C)[C@H]2O)[C@](C)(OC)C[C@@H](C)C(=O)[C@H](C)[C@@H](O)[C@]1(C)O` [Clarithromycin] + CO[C@@]12[C@H](COC(N)=O)C3=C(C(=O)C(C)=C(N)C3=O)N1C[C@@H]1N[C@@H]12 [MitomycinC]: 0.036, -0.0527, -0.0723 and 0.0537.
On to `CC[C@H]1OC(=O)[C@H](C)[C@@H](O[C@H]2C[C@@](C)(OC)[C@@H](O)[C@H](C)O2)[C@H](C)[C@@H](O[C@@H]2O[C@H](C)C[C@H](N(C)C)[C@H]2O)[C@](C)(OC)C[C@@H](C)C(=O)[C@H](C)[C@@H](O)[C@]1(C)O` [Clarithromycin] + COc1cc(Cc2cnc(N)nc2N)cc(OC)c1OC [Trimethoprim], for which the Bliss interaction score was -0.193 in the assay with B. subtilis 168, -0.0331 with S. pneumoniae D39V, 0.0723 in the assay with S. aureus DSM 20231 and 0.0667 in the assay with S. aureus Newman.
On to `CC[C@H]1OC(=O)[C@H](C)[C@@H](O[C@H]2C[C@@](C)(OC)[C@@H](O)[C@H](C)O2)[C@H](C)[C@@H](O[C@@H]2O[C@H](C)C[C@H](N(C)C)[C@H]2O)[C@](C)(OC)C[C@@H](C)C(=O)[C@H](C)[C@@H](O)[C@]1(C)O` [Clarithromycin] + N[C@@H]1CONC1=O [CycloserineD], for which the Bliss interaction score is 0.077 in the assay with B. subtilis 168, 0.136 with S. pneumoniae D39V, -0.127 in the assay with S. aureus DSM 20231 and -0.0691 in the assay with S. aureus Newman.
The matching figures for `CC[C@H]1OC(=O)[C@H](C)[C@@H](O[C@H]2C[C@@](C)(OC)[C@@H](O)[C@H](C)O2)[C@H](C)[C@@H](O[C@@H]2O[C@H](C)C[C@H](N(C)C)[C@H]2O)[C@](C)(OC)C[C@@H](C)C(=O)[C@H](C)[C@@H](O)[C@]1(C)O` [Clarithromycin] + O=C(O)[C@H]1/C(=C/CO)O[C@@H]2CC(=O)N21 [Clavulanic]: 0.047, -0.059, -0.212 and 0.277.
In the same order, the values of `CC[C@H]1OC(=O)[C@H](C)[C@@H](O[C@H]2C[C@@](C)(OC)[C@@H](O)[C@H](C)O2)[C@H](C)[C@@H](O[C@@H]2O[C@H](C)C[C@H](N(C)C)[C@H]2O)[C@](C)(OC)C[C@@H](C)C(=O)[C@H](C)[C@@H](O)[C@]1(C)O` [Clarithromycin] + Oc1cc(Cl)ccc1Oc1ccc(Cl)cc1Cl [Triclosan] are 0.0259, 0.0396, -0.0868 and 0.032.
For `CCC[C@@H]1C[C@@H](C(=O)N[C@@H]([C@H]2O[C@H](SC)[C@H](O)[C@@H](O)[C@H]2O)[C@H](C)Cl)N(C)C1` [Clindamycin] + CC1(C)S[C@@H]2[C@H](NC(=O)Cc3ccccc3)C(=O)N2[C@H]1C(=O)O [PenicillinG], the Bliss interaction score is 0.0383 in the assay on B. subtilis 168, 0.0611 in the assay on S. pneumoniae D39V, 0.0609 in the assay on S. aureus DSM 20231 and -0.0587 with S. aureus Newman.
In the same order, the values of `CCC[C@@H]1C[C@@H](C(=O)N[C@@H]([C@H]2O[C@H](SC)[C@H](O)[C@@H](O)[C@H]2O)[C@H](C)Cl)N(C)C1` [Clindamycin] + CC(=O)O[C@H]1C[C@@]2(C)[C@@H](C[C@@H](O)[C@H]3[C@@]4(C)CC[C@@H](O)[C@@H](C)[C@@H]4CC[C@@]32C)/C1=C(\CCC=C(C)C)C(=O)O [Fusidic acid] are 0.0418, 0.0662, 0.0254 and 0.0307.
In the same order, the values of `CCC[C@@H]1C[C@@H](C(=O)N[C@@H]([C@H]2O[C@H](SC)[C@H](O)[C@@H](O)[C@H]2O)[C@H](C)Cl)N(C)C1` [Clindamycin] + CC[C@H]1OC(=O)[C@H](C)C(=O)[C@H](C)[C@@H](O[C@@H]2O[C@H](C)C[C@H](N(C)C)[C@H]2O)[C@](C)(OC)C[C@@H](C)C(=O)[C@H](C)[C@H]2N(CCCCn3cnc(-c4cccnc4)c3)C(=O)O[C@]12C [Telithromycin] are 0.0609, 0.106, 0.0256 and -0.0812.
The matching figures for `CCC[C@@H]1C[C@@H](C(=O)N[C@@H]([C@H]2O[C@H](SC)[C@H](O)[C@@H](O)[C@H]2O)[C@H](C)Cl)N(C)C1` [Clindamycin] + CC[C@H]1OC(=O)[C@H](C)[C@@H](O[C@H]2C[C@@](C)(OC)[C@@H](O)[C@H](C)O2)[C@H](C)[C@@H](O[C@@H]2O[C@H](C)C[C@H](N(C)C)[C@H]2O)[C@](C)(O)C[C@@H](C)C(=O)[C@H](C)[C@@H](O)[C@]1(C)O [Erythromycin]: 0.0748, 0.123, -0.0244 and -0.0542.
In the case of `CCC[C@@H]1C[C@@H](C(=O)N[C@@H]([C@H]2O[C@H](SC)[C@H](O)[C@@H](O)[C@H]2O)[C@H](C)Cl)N(C)C1` [Clindamycin] + CN(C)[C@@H]1C(O)=C(C(N)=O)C(=O)[C@@]2(O)C(O)=C3C(=O)c4c(O)ccc(Cl)c4[C@@](C)(O)[C@H]3C[C@@H]12 [Clortetracycline], the Bliss interaction score in the assay on B. subtilis 168 is -0.212; in the assay on S. pneumoniae D39V, -0.0954; in the assay on S. aureus DSM 20231 it was -0.0617; in the assay with S. aureus Newman, -0.191.
In the case of `CCC[C@@H]1C[C@@H](C(=O)N[C@@H]([C@H]2O[C@H](SC)[C@H](O)[C@@H](O)[C@H]2O)[C@H](C)Cl)N(C)C1` [Clindamycin] + CN[C@H](CC(C)C)C(=O)N[C@H]1C(=O)N[C@@H](CC(N)=O)C(=O)N[C@H]2C(=O)N[C@H]3C(=O)N[C@H](C(=O)N[C@H](C(=O)O)c4cc(O)cc(O)c4-c4cc3ccc4O)[C@H](O[C@H]3C[C@](C)(N)[C@@H](O)[C@H](C)O3)c3ccc(c(Cl)c3)Oc3cc2cc(c3O[C@@H]2O[C@H](CO)[C@@H](O)[C@H](O)[C@H]2O[C@H]2C[C@](C)(NCc3ccc(-c4ccc(Cl)cc4)cc3)[C@@H](O)[C@H](C)O2)Oc2ccc(cc2Cl)[C@H]1O [Oritavancin], the Bliss interaction score in the assay on B. subtilis 168 came to 0.0359; with S. pneumoniae D39V, 0.0382; in the assay on S. aureus DSM 20231, 0.0257; with S. aureus Newman, 0.0703.
`CCC[C@@H]1C[C@@H](C(=O)N[C@@H]([C@H]2O[C@H](SC)[C@H](O)[C@@H](O)[C@H]2O)[C@H](C)Cl)N(C)C1` [Clindamycin] + CO[C@@]12[C@H](COC(N)=O)C3=C(C(=O)C(C)=C(N)C3=O)N1C[C@@H]1N[C@@H]12 [MitomycinC]: the Bliss interaction score in the assay on B. subtilis 168 is 0.0747; in the assay on S. pneumoniae D39V it was 0.0747; in the assay with S. aureus DSM 20231, -0.0349; with S. aureus Newman it was 0.0745.
Consider `CCC[C@@H]1C[C@@H](C(=O)N[C@@H]([C@H]2O[C@H](SC)[C@H](O)[C@@H](O)[C@H]2O)[C@H](C)Cl)N(C)C1` [Clindamycin] + N[C@@H]1CONC1=O [CycloserineD], for which the Bliss interaction score in the assay on B. subtilis 168 was 0.0351; with S. pneumoniae D39V it was 0.165; in the assay with S. aureus DSM 20231, -0.101; in the assay with S. aureus Newman, 0.0633.
With `CCC[C@@H]1C[C@@H](C(=O)N[C@@H]([C@H]2O[C@H](SC)[C@H](O)[C@@H](O)[C@H]2O)[C@H](C)Cl)N(C)C1` [Clindamycin] + Oc1cc(Cl)ccc1Oc1ccc(Cl)cc1Cl [Triclosan], the Bliss interaction score in the assay on B. subtilis 168 is 0.065; in the assay with S. pneumoniae D39V, -0.101; with S. aureus DSM 20231, -0.0305; in the assay on S. aureus Newman it was 0.0225.
In the same order, the values of `N[C@@H]1CONC1=O` [CycloserineD] + C/C(=C\C(=O)OCCCCCCCCC(=O)O)C[C@@H]1OC[C@H](C[C@@H]2O[C@H]2[C@@H](C)[C@H](C)O)[C@@H](O)[C@H]1O [Pseudomonic acid] are -0.0491, 0.136, 0.009 and -0.0141.
Regarding `N[C@@H]1CONC1=O` [CycloserineD] + CC1(C)S[C@@H]2[C@H](NC(=O)Cc3ccccc3)C(=O)N2[C@H]1C(=O)O [PenicillinG], the Bliss interaction score was 0.116 in the assay on B. subtilis 168, -0.221 in the assay with S. pneumoniae D39V, -0.0754 in the assay with S. aureus DSM 20231 and 0.0553 with S. aureus Newman.
On to `N[C@@H]1CONC1=O` [CycloserineD] + CC1=C\[C@@H](O)CC(=O)Cc2nc(co2)C(=O)N2CCC=C2C(=O)O[C@H](C(C)C)[C@H](C)/C=C/C(=O)NC\C=C\1 [Virginiamycin M1], for which the Bliss interaction score in the assay with B. subtilis 168 was -0.0364; with S. pneumoniae D39V it was -0.0528; in the assay with S. aureus DSM 20231 it was 0.101; with S. aureus Newman, 0.0587.
